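These data come from cells grown in 96-well plates and exposed to compound for 48 hours at five concentrations. Here, GI50 denotes the concentration required for 50% inhibition of growth.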 Active and inactive are the calls of the source. No stated cut-off is given here; in the data, active = GI50 up to about 1.1 µM and inactive = higher.
Assays:
Test in all cases: NCI tumour cell line growth inhibition, 48 h
[1] = system: OVCAR-5
[2] = system: CCRF-CEM
[3] = system: COLO 205
[4] = system: LOX IMVI
[5] = system: HOP-62
[6] = system: SNB-19
[7] = system: ACHN
[8] = system: SK-MEL-2
[9] = system: Malme-3M
[10] = system: IGROV-1
[11] = system: NCI-H522
[12] = system: MDA-MB-231
[13] = system: T47D
[14] = system: MDA-N
[15] = system: HCT-15
[16] = system: Hs-578T
[17] = system: U-251
[18] = system: HL-60
[19] = system: HOP-92
[20] = system: BT-549

SMILES | GI50 [1] | GI50 [2] | GI50 [3] | GI50 [4] | GI50 [5] | GI50 [6] | GI50 [7] | GI50 [8] | GI50 [9] | GI50 [10] | GI50 [11] | GI50 [12] | GI50 [13] | GI50 [14] | GI50 [15] [µM] | GI50 [16] | GI50 [17] | GI50 [18] | GI50 [19] | GI50 [20]
CN(C)/C=N/n1c2ccccc2c2ccccc21 | > 100 µM (inactive) | > 100 µM (inactive) | 83.6 µM (inactive) | > 100 µM (inactive) | > 100 µM (inactive) | > 100 µM (inactive) | > 100 µM (inactive) | > 100 µM (inactive) | 50.1 µM (inactive) | > 100 µM (inactive) | > 100 µM (inactive) | > 100 µM (inactive) | > 100 µM (inactive) | > 100 µM (inactive) | > 100 | 34 µM (inactive) | > 100 µM (inactive) | > 100 µM (inactive) |  | 
COc1cc(S(=O)(=O)Nc2nc(-c3ccc(N4C(=O)C(CC(=O)O)SC4c4ccccc4O)cc3)cs2)ccc1Cl (configuration not stated) | > 100 µM (inactive) |  | 83.4 µM (inactive) | > 100 µM (inactive) | 90.4 µM (inactive) | > 100 µM (inactive) | > 100 µM (inactive) | > 100 µM (inactive) | > 100 µM (inactive) | 34.9 µM (inactive) | 85.3 µM (inactive) | > 100 µM (inactive) | 28.1 µM (inactive) | > 100 µM (inactive) | 47.5 | > 100 µM (inactive) | 45.8 µM (inactive) | 15.3 µM (inactive) | 31 µM (inactive) | 
c1ccc2c(c1)c(N1CCCCC1)cc1nc3c(cc(N4CCCCC4)c4ccccc43)nc12 | > 100 µM (inactive) | > 100 µM (inactive) | > 100 µM (inactive) | > 100 µM (inactive) | > 100 µM (inactive) | > 100 µM (inactive) | > 100 µM (inactive) | > 100 µM (inactive) | > 100 µM (inactive) | > 100 µM (inactive) | > 100 µM (inactive) | > 100 µM (inactive) |  | > 100 µM (inactive) | > 100 |  | > 100 µM (inactive) | > 100 µM (inactive) | > 100 µM (inactive) | > 100 µM (inactive)
CC(C)(C)[Si](C)(C)OCC1OC(n2ccc(=O)[nH]c2=O)C(O[Si](C)(C)C(C)(C)C)[C@]12O[C@@H]2CO (some centres not stated) | 17.5 µM (inactive) | > 10 µM (inactive) | 17.5 µM (inactive) | 16.3 µM (inactive) | 16 µM (inactive) | 10.3 µM (inactive) | 11.9 µM (inactive) | 14.7 µM (inactive) |  | 16.3 µM (inactive) | 14.1 µM (inactive) | 19.5 µM (inactive) |  | 20.9 µM (inactive) | 11.9 |  | 15.6 µM (inactive) |  | 15 µM (inactive) | 3.9 µM (inactive)
CN(C)CCOC1(Cc2ccc(Cl)cc2Cl)CCC(C(C)(C)C)CC1 (configuration not stated) | 1.86 µM (inactive) | 1.88 µM (inactive) | 1.56 µM (inactive) | 1.78 µM (inactive) | 1.84 µM (inactive) | 2.22 µM (inactive) | 2.27 µM (inactive) | 1.16 µM (inactive) | 1.73 µM (inactive) | 1.83 µM (inactive) | 2 µM (inactive) | 1.77 µM (inactive) |  |  |  | 2.4 µM (inactive) | 1.88 µM (inactive) |  |  | 
O=C1c2ccccc2C(=O)N1CCc1ncc[nH]1 | > 100 µM (inactive) | > 100 µM (inactive) | > 100 µM (inactive) | > 100 µM (inactive) |  | > 100 µM (inactive) | > 100 µM (inactive) | > 100 µM (inactive) |  | > 100 µM (inactive) | > 100 µM (inactive) |  | > 100 µM (inactive) | > 100 µM (inactive) | > 100 | > 100 µM (inactive) |  |  | > 100 µM (inactive) | 
CCOC(=O)C(NS(=O)(=O)c1ccccc1)(C(F)(F)F)P(=O)(OCC(C)C)OCC(C)C (configuration not stated) | > 100 µM (inactive) | > 100 µM (inactive) | > 100 µM (inactive) | > 100 µM (inactive) | > 100 µM (inactive) | > 100 µM (inactive) | > 100 µM (inactive) |  | > 100 µM (inactive) | > 100 µM (inactive) | > 100 µM (inactive) | > 100 µM (inactive) | > 100 µM (inactive) | > 100 µM (inactive) | > 100 | > 100 µM (inactive) | > 100 µM (inactive) | > 100 µM (inactive) | > 100 µM (inactive) | 
CCN(CC)CCCC(C)Nc1ccnc2cc(Cl)ccc12 (configuration not stated) [CHLOROQUINE PHOSPHATE] | 25.1 µM (inactive) | 20.8 µM (inactive) | 9.38 µM (inactive) | 20.6 µM (inactive) | 34.4 µM (inactive) | > 76.4 µM (inactive) | > 85.1 µM (inactive) | 10 µM (inactive) | 20.9 µM (inactive) | 24.5 µM (inactive) | 25.8 µM (inactive) | 15.8 µM (inactive) | 28.1 µM (inactive) | 16.6 µM (inactive) | 24.9 |  | 21.2 µM (inactive) | 13.3 µM (inactive) | 15.7 µM (inactive) | 
COc1ccc(-n2sc3ncc(-c4ccccc4)cc3c2=O)cc1 | 26.2 µM (inactive) | 39.4 µM (inactive) | 56.4 µM (inactive) | 32.1 µM (inactive) | > 100 µM (inactive) | 29.4 µM (inactive) | 21.6 µM (inactive) | > 100 µM (inactive) |  | 22.1 µM (inactive) |  |  | > 100 µM (inactive) |  | 35.6 |  | 27.6 µM (inactive) | 20.5 µM (inactive) | 42.5 µM (inactive) | 94 µM (inactive)
CNc1cc([N+](=O)[O-])ccc1C(=O)N1CCC[C@H]1CO | > 100 µM (inactive) |  |  | > 100 µM (inactive) | > 100 µM (inactive) | > 100 µM (inactive) | > 100 µM (inactive) | > 100 µM (inactive) |  | > 100 µM (inactive) | > 100 µM (inactive) | > 100 µM (inactive) | > 100 µM (inactive) | > 100 µM (inactive) | > 100 |  | > 100 µM (inactive) | > 100 µM (inactive) | > 100 µM (inactive) | 
O=C1OC(C2=CC(=O)c3ccccc3C2=O)C(Cl)=C1Cl (configuration not stated) | 36.3 µM (inactive) | 20 µM (inactive) | 35 µM (inactive) | 20.2 µM (inactive) | 33.1 µM (inactive) | 56.1 µM (inactive) | 15.8 µM (inactive) | 14.1 µM (inactive) | 26.5 µM (inactive) |  | 15.9 µM (inactive) | 11.6 µM (inactive) | 29.1 µM (inactive) | 39.5 µM (inactive) | 20 | 54.7 µM (inactive) | 28.1 µM (inactive) | 35.9 µM (inactive) | 47 µM (inactive) | 
O/N=C(\C(=N/O)Nc1ccc(-c2ccc(NC(=N/O)/C(=N\O)c3ccccc3)cc2)cc1)c1ccccc1 | 13.5 µM (inactive) | 18.8 µM (inactive) | 16.7 µM (inactive) | 15.3 µM (inactive) | 11 µM (inactive) | 19.2 µM (inactive) | 30.6 µM (inactive) | 20.2 µM (inactive) | 19.4 µM (inactive) | 25.1 µM (inactive) | 17.8 µM (inactive) |  |  |  | 27.3 |  | 25.7 µM (inactive) | 27.9 µM (inactive) | 20 µM (inactive) | 
CN1N=C(c2ccncc2)OC1c1ccc(Cl)c(Cl)c1 (configuration not stated) | > 100 µM (inactive) | 71.6 µM (inactive) | > 100 µM (inactive) | > 100 µM (inactive) | > 100 µM (inactive) | > 100 µM (inactive) | > 100 µM (inactive) | > 100 µM (inactive) | > 100 µM (inactive) | > 100 µM (inactive) | > 100 µM (inactive) | > 100 µM (inactive) | > 100 µM (inactive) | > 100 µM (inactive) | > 100 | > 100 µM (inactive) | > 100 µM (inactive) | 69.8 µM (inactive) | > 100 µM (inactive) | 
COC(=O)[C@H]1[C@H](OC(=O)[C@@H](OC)c2ccccc2)ON2CC[C@@H](OC(=O)c3ccccc3)[C@H]12 | > 100 µM (inactive) | > 100 µM (inactive) | > 100 µM (inactive) | > 100 µM (inactive) | 35.1 µM (inactive) | > 100 µM (inactive) | 10.3 µM (inactive) | 48.1 µM (inactive) | > 100 µM (inactive) | 49.9 µM (inactive) | 2.65 µM (inactive) | 74.3 µM (inactive) | 91.2 µM (inactive) | > 100 µM (inactive) | > 100 | 57.9 µM (inactive) | 70.1 µM (inactive) | > 100 µM (inactive) | 30.3 µM (inactive) | 
CCOP(=O)(OCC)C(C)(C)N(C)/C(F)=N/C(F)(F)F | > 100 µM (inactive) | > 100 µM (inactive) | > 100 µM (inactive) | > 100 µM (inactive) | > 100 µM (inactive) |  | > 100 µM (inactive) | > 100 µM (inactive) | > 100 µM (inactive) | > 100 µM (inactive) |  | > 100 µM (inactive) | > 100 µM (inactive) | > 100 µM (inactive) | > 100 | > 100 µM (inactive) | > 100 µM (inactive) | > 100 µM (inactive) | > 100 µM (inactive) | 
COC(=O)C(=O)C(CC(=O)Nc1cccc(C(F)(F)F)c1)C(=O)OC (configuration not stated) | > 100 µM (inactive) | > 100 µM (inactive) | > 100 µM (inactive) | > 100 µM (inactive) | > 100 µM (inactive) | > 100 µM (inactive) | > 100 µM (inactive) | > 100 µM (inactive) | > 100 µM (inactive) | > 100 µM (inactive) | > 100 µM (inactive) |  |  |  | > 100 |  | > 100 µM (inactive) | > 100 µM (inactive) | > 100 µM (inactive) | 
CCCCCc1cc(OC(=O)c2c(O)cc(OC)cc2CCCCC)cc(O)c1C(=O)O | 19.1 µM (inactive) | 20.7 µM (inactive) | 18.2 µM (inactive) | 17.7 µM (inactive) | 16.4 µM (inactive) | 12.7 µM (inactive) | 17.3 µM (inactive) | 16.8 µM (inactive) | 13 µM (inactive) | 16.6 µM (inactive) | 11.1 µM (inactive) |  |  |  | 12.6 |  | 15.2 µM (inactive) | 24.9 µM (inactive) | 16.4 µM (inactive) | 
